The values that follow come from paper PMC3591309, “Deoxyhypusine Hydroxylase from Plasmodium vivax, the Neglected Human Malaria Parasite: Molecular Cloning, Expression and Specific Inhibition by the 5-LOX Inhibitor Zileuton” (PLoS ONE, 2013).

This test has as its target T1, Deoxyhypusine hydroxylase (DOHH) (Plasmodium vivax, UniProt A5JZ19).
T1 construct: full-length ORF of 346 amino acids, histidine-tagged, expressed in E. coli BL21(DE3) (pET-28a)
T1 sequence (A5JZ19 1-346): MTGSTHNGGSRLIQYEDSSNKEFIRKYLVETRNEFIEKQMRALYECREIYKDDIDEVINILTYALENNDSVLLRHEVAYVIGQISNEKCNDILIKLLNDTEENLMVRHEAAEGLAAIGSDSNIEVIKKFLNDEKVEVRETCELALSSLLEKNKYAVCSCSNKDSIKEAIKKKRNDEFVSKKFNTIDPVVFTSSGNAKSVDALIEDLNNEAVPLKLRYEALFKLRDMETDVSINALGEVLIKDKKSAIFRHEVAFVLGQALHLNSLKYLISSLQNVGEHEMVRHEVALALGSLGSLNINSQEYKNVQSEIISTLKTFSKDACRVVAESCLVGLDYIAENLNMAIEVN
Kind of test: recombinant DOHH activity assay with eIF-5A(Dhp) substrate; radioactive filter assay and GC/MS, dose-response. Type of test: biochemical.

Structures are written as SMILES.

As for `CC(c1cc2ccccc2s1)N(O)C(N)=O` (racemic) [zileuton, (RS)-1-(1-Benzothiophen-2-ylethyl)-1-hydroxyurea], the IC50 is on record as 12,5 nmol.
